The values that follow come from BindingDB's records for doi:10.1016/j.ejmech.2008.01.010 (Universit&#233, 2008).

Structures can show the parent of a compound that is named as a salt.

Hepatocyte growth factor receptor, sequence (P08581 whole entry): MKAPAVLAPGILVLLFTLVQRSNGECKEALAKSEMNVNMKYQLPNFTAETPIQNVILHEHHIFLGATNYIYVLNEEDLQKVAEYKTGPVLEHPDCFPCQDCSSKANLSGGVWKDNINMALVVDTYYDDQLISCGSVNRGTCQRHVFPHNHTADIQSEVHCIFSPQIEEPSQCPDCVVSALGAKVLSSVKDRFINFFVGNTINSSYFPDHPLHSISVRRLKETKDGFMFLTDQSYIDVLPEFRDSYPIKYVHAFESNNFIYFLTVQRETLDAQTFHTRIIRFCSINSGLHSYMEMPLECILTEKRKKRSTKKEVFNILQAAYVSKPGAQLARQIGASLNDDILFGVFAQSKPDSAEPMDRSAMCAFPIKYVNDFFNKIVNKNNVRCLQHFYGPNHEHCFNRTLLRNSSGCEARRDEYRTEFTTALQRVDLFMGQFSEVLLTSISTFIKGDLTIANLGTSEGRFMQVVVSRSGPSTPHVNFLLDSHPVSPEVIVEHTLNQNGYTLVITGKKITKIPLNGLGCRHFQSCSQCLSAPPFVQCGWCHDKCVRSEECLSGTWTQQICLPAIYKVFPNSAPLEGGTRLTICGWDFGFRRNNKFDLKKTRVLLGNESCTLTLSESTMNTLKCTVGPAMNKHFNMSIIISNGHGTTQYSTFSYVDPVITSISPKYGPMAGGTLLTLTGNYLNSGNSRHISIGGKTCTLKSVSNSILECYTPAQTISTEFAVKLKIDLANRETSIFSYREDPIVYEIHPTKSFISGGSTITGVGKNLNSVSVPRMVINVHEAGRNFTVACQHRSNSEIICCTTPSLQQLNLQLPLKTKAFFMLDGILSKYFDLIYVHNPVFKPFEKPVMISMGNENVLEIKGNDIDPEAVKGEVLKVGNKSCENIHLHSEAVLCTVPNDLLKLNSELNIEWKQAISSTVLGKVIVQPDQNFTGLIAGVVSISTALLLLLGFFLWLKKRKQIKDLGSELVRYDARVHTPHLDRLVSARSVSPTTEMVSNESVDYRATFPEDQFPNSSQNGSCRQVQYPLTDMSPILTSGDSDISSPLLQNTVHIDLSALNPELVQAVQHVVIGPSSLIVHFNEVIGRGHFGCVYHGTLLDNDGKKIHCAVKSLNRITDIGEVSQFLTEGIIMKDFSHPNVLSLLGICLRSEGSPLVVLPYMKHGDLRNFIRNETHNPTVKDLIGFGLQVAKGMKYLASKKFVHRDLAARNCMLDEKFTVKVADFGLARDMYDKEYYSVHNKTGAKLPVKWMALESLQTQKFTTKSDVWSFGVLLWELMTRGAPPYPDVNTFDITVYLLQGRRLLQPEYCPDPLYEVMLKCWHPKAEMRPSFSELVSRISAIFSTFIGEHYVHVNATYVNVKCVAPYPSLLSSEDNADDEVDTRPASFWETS

For the first test, the target named is Vascular endothelial growth factor receptor 2 (Homo sapiens, UniProt P35968). In words: Inhibition of KDR.
Vascular endothelial growth factor receptor 2, sequence (P35968 whole entry): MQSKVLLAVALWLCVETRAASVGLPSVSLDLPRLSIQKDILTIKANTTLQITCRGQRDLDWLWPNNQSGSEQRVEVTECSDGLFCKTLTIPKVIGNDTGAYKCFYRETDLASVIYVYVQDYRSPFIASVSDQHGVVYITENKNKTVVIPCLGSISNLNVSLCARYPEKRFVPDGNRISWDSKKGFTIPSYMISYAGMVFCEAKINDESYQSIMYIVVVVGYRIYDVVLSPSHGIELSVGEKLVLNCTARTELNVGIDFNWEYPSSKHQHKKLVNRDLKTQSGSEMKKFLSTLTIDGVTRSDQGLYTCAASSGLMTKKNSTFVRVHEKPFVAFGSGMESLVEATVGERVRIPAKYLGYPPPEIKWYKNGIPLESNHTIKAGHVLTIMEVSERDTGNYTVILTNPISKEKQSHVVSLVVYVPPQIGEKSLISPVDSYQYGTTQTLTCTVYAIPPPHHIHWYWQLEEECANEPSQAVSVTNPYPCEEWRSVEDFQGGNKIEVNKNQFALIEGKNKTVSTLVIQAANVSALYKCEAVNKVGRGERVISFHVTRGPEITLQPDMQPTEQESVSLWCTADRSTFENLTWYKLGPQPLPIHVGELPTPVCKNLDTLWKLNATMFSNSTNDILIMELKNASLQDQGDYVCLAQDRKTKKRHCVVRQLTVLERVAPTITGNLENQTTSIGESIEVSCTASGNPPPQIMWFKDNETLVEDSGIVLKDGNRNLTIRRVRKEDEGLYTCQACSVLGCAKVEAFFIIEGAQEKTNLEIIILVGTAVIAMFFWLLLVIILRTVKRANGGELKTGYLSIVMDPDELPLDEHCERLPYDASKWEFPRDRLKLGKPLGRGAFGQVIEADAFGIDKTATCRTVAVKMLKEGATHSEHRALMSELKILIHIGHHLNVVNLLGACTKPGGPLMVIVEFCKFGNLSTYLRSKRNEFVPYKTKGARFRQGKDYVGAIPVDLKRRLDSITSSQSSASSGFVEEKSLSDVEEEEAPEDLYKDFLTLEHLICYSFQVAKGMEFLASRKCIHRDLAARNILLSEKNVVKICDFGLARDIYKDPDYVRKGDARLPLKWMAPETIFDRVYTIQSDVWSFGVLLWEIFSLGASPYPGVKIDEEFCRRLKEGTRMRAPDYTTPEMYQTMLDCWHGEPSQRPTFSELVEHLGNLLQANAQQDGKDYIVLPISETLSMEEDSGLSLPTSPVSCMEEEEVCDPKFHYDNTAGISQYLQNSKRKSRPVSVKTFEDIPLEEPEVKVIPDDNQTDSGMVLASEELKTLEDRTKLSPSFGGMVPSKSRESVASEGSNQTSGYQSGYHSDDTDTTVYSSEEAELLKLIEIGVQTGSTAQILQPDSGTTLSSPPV
On to `N[C@@H](CCCN=CC1C(=O)Nc2ccccc21)C(=O)O` (stereo partly drawn) [(Z/E)-(2S)-2-amino-5-([(2-oxo-indolin-3-ylidene)methyl]amino)pentanoic acid hydrochloride], for which the IC50 (in general, the point on the concentration scale where inhibition reaches its midpoint) was more than 10 µM.
On the same count and under the same terms, the result for `N[C@@H](CCCCN=CC1C(=O)Nc2ccccc21)C(=O)O` (stereo partly drawn) [(Z/E)-(2S)-2-amino-6-([(2-oxo-indolin-3-ylidene)methyl]amino)hexanoic acid hydrochloride] reads more than 10 µM; that for `N[C@@H](CCCCN=CC1C(=O)Nc2ccc(Br)cc21)C(=O)O` (stereo partly drawn) [(Z/E)-(2S)-2-amino-6-([(5-bromo-2-oxo-indolin-3-ylidene)methyl]amino)hexanoic acid hydrochloride], more than 10 µM.

The next test has as its target Insulin-like growth factor 1 receptor (Homo sapiens, UniProt P08069). Kind of test: Inhibition of IGF1R.
Regarding `N[C@@H](CCCN=CC1C(=O)Nc2ccccc21)C(=O)O` (stereo partly drawn) [(Z/E)-(2S)-2-amino-5-([(2-oxo-indolin-3-ylidene)methyl]amino)pentanoic acid hydrochloride], the IC50 is more than 10 µM.
Same read-out and setting: as for `N[C@@H](CCCCN=CC1C(=O)Nc2ccccc21)C(=O)O` (stereo partly drawn) [(Z/E)-(2S)-2-amino-6-([(2-oxo-indolin-3-ylidene)methyl]amino)hexanoic acid hydrochloride], the figure is more than 10 µM.
`N[C@@H](CCCCN=CC1C(=O)Nc2ccc(Br)cc21)C(=O)O` (stereo partly drawn) [(Z/E)-(2S)-2-amino-6-([(5-bromo-2-oxo-indolin-3-ylidene)methyl]amino)hexanoic acid hydrochloride] gave an IC50 of more than 10 µM.

A further test has as its target Hepatocyte growth factor receptor (Homo sapiens, UniProt P08581). In words: Inhibition of cMet.
With `N[C@@H](CCCN=CC1C(=O)Nc2ccccc21)C(=O)O` (stereo partly drawn) [(Z/E)-(2S)-2-amino-5-([(2-oxo-indolin-3-ylidene)methyl]amino)pentanoic acid hydrochloride], the IC50 was more than 10 µM.
Same read-out and setting: as for `N[C@@H](CCCCN=CC1C(=O)Nc2ccccc21)C(=O)O` (stereo partly drawn) [(Z/E)-(2S)-2-amino-6-([(2-oxo-indolin-3-ylidene)methyl]amino)hexanoic acid hydrochloride], the figure is more than 10 µM; as for `N[C@@H](CCCCN=CC1C(=O)Nc2ccc(Br)cc21)C(=O)O` (stereo partly drawn) [(Z/E)-(2S)-2-amino-6-([(5-bromo-2-oxo-indolin-3-ylidene)methyl]amino)hexanoic acid hydrochloride], more than 10 µM.

In the next test the target is Proto-oncogene tyrosine-protein kinase receptor Ret (Homo sapiens, UniProt P07949). Kind of test: Inhibition of Ret.
Consider `N[C@@H](CCCN=CC1C(=O)Nc2ccccc21)C(=O)O` (stereo partly drawn) [(Z/E)-(2S)-2-amino-5-([(2-oxo-indolin-3-ylidene)methyl]amino)pentanoic acid hydrochloride], for which the IC50 was more than 10 µM.
Same read-out and setting: the result for `N[C@@H](CCCCN=CC1C(=O)Nc2ccccc21)C(=O)O` (stereo partly drawn) [(Z/E)-(2S)-2-amino-6-([(2-oxo-indolin-3-ylidene)methyl]amino)hexanoic acid hydrochloride] reads more than 10 µM.
Same read-out and setting: the result for `N[C@@H](CCCCN=CC1C(=O)Nc2ccc(Br)cc21)C(=O)O` (stereo partly drawn) [(Z/E)-(2S)-2-amino-6-([(5-bromo-2-oxo-indolin-3-ylidene)methyl]amino)hexanoic acid hydrochloride] reads more than 10 µM.

The target in another test is Proto-oncogene tyrosine-protein kinase Src (Homo sapiens, UniProt P12931). In words: Inhibition of Src.
Proto-oncogene tyrosine-protein kinase Src, sequence (P12931 2-536 limits assumed): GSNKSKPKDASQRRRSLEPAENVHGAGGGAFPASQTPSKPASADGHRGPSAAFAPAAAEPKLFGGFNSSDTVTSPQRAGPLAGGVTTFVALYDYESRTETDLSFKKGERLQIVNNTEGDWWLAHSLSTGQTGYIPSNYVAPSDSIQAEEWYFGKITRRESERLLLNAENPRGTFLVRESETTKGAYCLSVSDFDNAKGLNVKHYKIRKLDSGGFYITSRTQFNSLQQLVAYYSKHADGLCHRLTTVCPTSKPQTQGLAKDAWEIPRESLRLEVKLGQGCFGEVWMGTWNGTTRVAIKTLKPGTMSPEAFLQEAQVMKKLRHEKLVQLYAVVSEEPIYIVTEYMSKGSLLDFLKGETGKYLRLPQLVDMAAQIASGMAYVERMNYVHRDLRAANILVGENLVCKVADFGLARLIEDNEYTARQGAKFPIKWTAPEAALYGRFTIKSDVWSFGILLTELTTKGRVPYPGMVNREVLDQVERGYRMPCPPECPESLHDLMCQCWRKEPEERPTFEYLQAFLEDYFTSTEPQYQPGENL
`N[C@@H](CCCN=CC1C(=O)Nc2ccccc21)C(=O)O` (stereo partly drawn) [(Z/E)-(2S)-2-amino-5-([(2-oxo-indolin-3-ylidene)methyl]amino)pentanoic acid hydrochloride] had a 50% inhibitory concentration (IC50) of more than 10 µM.
In turn, `N[C@@H](CCCCN=CC1C(=O)Nc2ccccc21)C(=O)O` (stereo partly drawn) [(Z/E)-(2S)-2-amino-6-([(2-oxo-indolin-3-ylidene)methyl]amino)hexanoic acid hydrochloride] returned an IC50 of more than 10 µM.
Same read-out and setting: the result for `N[C@@H](CCCCN=CC1C(=O)Nc2ccc(Br)cc21)C(=O)O` (stereo partly drawn) [(Z/E)-(2S)-2-amino-6-([(5-bromo-2-oxo-indolin-3-ylidene)methyl]amino)hexanoic acid hydrochloride] reads more than 10 µM.

The target of a further test is Tyrosine-protein kinase ABL1 (Homo sapiens, UniProt P00519). In words: Inhibition of c-Abl.
Tyrosine-protein kinase ABL1, sequence (P00519 whole entry): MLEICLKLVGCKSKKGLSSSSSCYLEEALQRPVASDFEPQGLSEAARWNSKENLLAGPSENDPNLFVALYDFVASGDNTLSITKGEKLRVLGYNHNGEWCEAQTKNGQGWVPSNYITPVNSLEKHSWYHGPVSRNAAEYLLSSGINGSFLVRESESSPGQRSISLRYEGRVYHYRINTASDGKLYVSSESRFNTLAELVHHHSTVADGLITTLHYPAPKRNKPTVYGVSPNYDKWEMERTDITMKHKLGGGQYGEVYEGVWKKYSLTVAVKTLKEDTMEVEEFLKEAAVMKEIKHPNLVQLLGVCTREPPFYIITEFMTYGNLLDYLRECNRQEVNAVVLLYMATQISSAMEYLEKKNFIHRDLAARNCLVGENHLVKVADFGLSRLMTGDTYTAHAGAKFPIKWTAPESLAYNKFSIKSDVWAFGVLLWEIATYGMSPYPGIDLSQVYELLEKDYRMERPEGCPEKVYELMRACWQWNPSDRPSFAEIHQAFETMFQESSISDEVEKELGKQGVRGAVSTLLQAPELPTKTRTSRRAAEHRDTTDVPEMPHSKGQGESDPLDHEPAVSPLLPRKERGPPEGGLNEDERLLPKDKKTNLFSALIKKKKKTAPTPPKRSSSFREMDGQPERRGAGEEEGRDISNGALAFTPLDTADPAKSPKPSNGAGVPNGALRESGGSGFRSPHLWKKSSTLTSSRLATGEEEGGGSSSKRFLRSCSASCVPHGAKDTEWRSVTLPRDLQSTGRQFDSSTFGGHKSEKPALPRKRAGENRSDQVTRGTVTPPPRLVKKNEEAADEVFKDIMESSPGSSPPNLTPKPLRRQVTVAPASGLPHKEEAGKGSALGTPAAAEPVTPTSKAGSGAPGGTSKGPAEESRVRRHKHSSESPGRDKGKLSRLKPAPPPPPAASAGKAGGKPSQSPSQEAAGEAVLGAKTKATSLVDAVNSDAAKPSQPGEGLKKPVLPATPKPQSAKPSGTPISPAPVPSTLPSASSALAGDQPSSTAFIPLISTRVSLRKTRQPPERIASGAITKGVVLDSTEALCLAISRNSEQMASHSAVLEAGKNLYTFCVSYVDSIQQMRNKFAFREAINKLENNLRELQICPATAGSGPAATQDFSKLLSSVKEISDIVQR
Turning to `N[C@@H](CCCN=CC1C(=O)Nc2ccccc21)C(=O)O` (stereo partly drawn) [(Z/E)-(2S)-2-amino-5-([(2-oxo-indolin-3-ylidene)methyl]amino)pentanoic acid hydrochloride], the IC50 is more than 10 µM.
For `N[C@@H](CCCCN=CC1C(=O)Nc2ccccc21)C(=O)O` (stereo partly drawn) [(Z/E)-(2S)-2-amino-6-([(2-oxo-indolin-3-ylidene)methyl]amino)hexanoic acid hydrochloride], the concentration for half-maximal inhibition (IC50) was more than 10 µM.
Same read-out and setting: the result for `N[C@@H](CCCCN=CC1C(=O)Nc2ccc(Br)cc21)C(=O)O` (stereo partly drawn) [(Z/E)-(2S)-2-amino-6-([(5-bromo-2-oxo-indolin-3-ylidene)methyl]amino)hexanoic acid hydrochloride] reads more than 10 µM.
